# Measured values as given in publication PMC6927228 (Journal of Experimental Pharmacology, 2019).
# Target: Trypanosoma evansi protein-tyrosine phosphatase (PTPase)
# Conditions: competitive; substrate pNPP; 25 mM HEPES pH 7.3, 10% glycerol, no EDTA; 37 °C
structure (smiles),measurement,value
[O]=[V]([OH])([OH])[OH] [sodium orthovanadate],Ki,200 µg/mL
